Molecules are shown by their SMILES. Bounds are passed on as bounds.

In one experiment the test system is THP-1 (AML) cells. The experiment can be described thus: LSD1 CD11b cellular assay (flow cytometry). It is filed as cell-based. Particulars: Homo sapiens, THP-1, 96 h; CD11b expressing cells, 4 days incubation. Background: A flow cytometer gives signals particle by particle.
The next experiment deals with full-length human LSD1 (Homo sapiens (Human), UniProt O60341). The experiment can be described thus: In vitro enzyme inhibition assay LSD-1 (TR-FRET). It is filed as biochemical. The conditions noted are these: H3K4me1-biotin peptide. The method, boiled down: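 Demethylase activity of full-length human LSD1 was detected by TR-FRET after 1 hour incubation at room temperature. Excitation was at 320 nm, with emission at 615 nm and 665 nm. IC50 values were derived from the inhibition data.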
In general terms: Time-resolved FRET reads energy transfer from a long-lived donor to a nearby acceptor.

In a further experiment the test system is Kasumi-1. The experiment is described as follows: Kasumi-1 AML cell line proliferation assay (Cell-MTS assay). It is filed as cell-based. The conditions noted are these: Homo sapiens, 168 hours incubation. The text has this: Colorimetric cellular assay to assess the ability of LSD-1 small molecule inhibitors to effect the proliferation of the established AML cancer cell line Kasumi-1.
This Cell-MTS assay is a 7-day plate based colorimetric assay which quantifies the amount of newly generated NADH in the presence and absence of test compound. These NADH levels are used as a proxy for the quantification of cancer cell proliferation.
The established cancer cell line Kasumi-1 with a verified p53 mutation were purchased from American Type Culture Collection (ATCC) and routinely passaged according to ATCC published protocols. For routine assay these cells were seeded at a density of 20,000 cells per 96-well. 24 hours after plating, cells received an 11 point dilution of test compound with final concentration ranges from 100 μM to 2.0 nM. Cells are incubated in the presence of compound for 168 hours at 37° C., 5% CO2. At the end of this compound incubation period, 80 μl of media is removed and 20 μL of CellTiter 96® AQueous Non-Radioactive Cell Proliferation Assay solution (Promega) is added. The cells are incubated until the OD490 is >0.6. IC50 values are calculated using the IDBS XLfit software package and include background subtracted OD490 values and normalization to DMSO controls.
Table 5 provides the Kasumi-1 cellular IC50 values of various substituted heterocyclic compounds disclosed herein.
(Formazan colour is commonly taken as a measure of viable cells.)

On to `Cc1ccc(-c2c(-c3ccc(C#N)c(F)c3)nc(N3CCC(N)CC3)c(=O)n2C)cn1` [Example 66, 4-[6-(4-Amino-piperidin-1-yl)-4-methyl-3-(6-methyl-pyridin-3-yl)-5-oxo-4,5-dihydro-pyrazin-2-yl]-2-fluoro-benzonitrile], for which the results for the IC50 in the experiment on THP-1 (AML) cells, at full-length human LSD1 and with Kasumi-1 were less than 100 nM, less than 100 nM and not above 100 nM, respectively.
For the compound `COc1ccc(-c2c(-c3ccc(C#N)cc3)nc(NC[C@H]3CCNC3)c(=O)n2C)cc1` [Example 31, 4-[3-(4-methoxyphenyl)-4-methyl-5-oxo-6-{[(3S)-pyrrolidin-3-ylmethyl]amino}-4,5-dihydropyrazin-2-yl]benzonitrile], the IC50 in the experiment on THP-1 (AML) cells is less than 100 nM; on full-length human LSD1, less than 100 nM; in the experiment on Kasumi-1, not above 100 nM.
As to `COc1ccc(-c2c(-c3ccc(C#N)cc3)cc(N3CCC(N)CC3)c(=O)n2C)cc1F` [Example 83, 4-[5-(4-aminopiperidin-1-yl)-2-(3-fluoro-4-methoxyphenyl)-1-methyl-6-oxopyridin-3-yl]benzonitrile], the IC50 was less than 100 nM in the experiment with THP-1 (AML) cells, less than 100 nM on full-length human LSD1 and not above 100 nM in the experiment with Kasumi-1.
For `COCCn1c(-c2ccc(C)cc2)c(-c2ccc(C#N)cc2)nc(N2CCC(N)CC2)c1=O` [Example 36, 4-[6-(4-amino-piperidin-1-yl)-4-(2-methoxy-ethyl)-5-oxo-3-p-tolyl-4,5-dihydro-pyrazin-2-yl]-benzonitrile], the results for the IC50 in the experiment on THP-1 (AML) cells, on full-length human LSD1 and with Kasumi-1 were less than 100 nM, less than 100 nM and not above 100 nM, respectively.
As to `Cn1c(-c2ccc(C3CC3)cc2)c(-c2ccc(C#N)c(F)c2)cc(NC[C@H]2CCNC2)c1=O` [Example 74, (S)-4-(2-(4-cyclopropylphenyl)-1-methyl-6-oxo-5-(pyrrolidin-3-ylmethylamino)-1,6-dihydropyridin-3-yl)-2-fluorobenzonitrile], the IC50 in the experiment with THP-1 (AML) cells is less than 100 nM; against full-length human LSD1 it was less than 100 nM; in the experiment on Kasumi-1, not above 100 nM.
In the case of `Cc1ccc(-c2c(-c3ccc(C#N)c(F)c3)nc(N3CCC(N)CC3)c(=O)n2CCO)cc1` [Example 42, 4-[6-(4-amino-piperidin-1-yl)-4-(2-hydroxy-ethyl)-5-oxo-3-p-tolyl-4,5-dihydro-pyrazin-2-yl]-2-fluoro-benzonitrile], the IC50 in the experiment on THP-1 (AML) cells was less than 100 nM; against full-length human LSD1, less than 100 nM; with Kasumi-1, not above 100 nM.
As for `CN(C)c1ccc(-c2c(-c3ccc(C#N)c(F)c3)cc(N3CCC(N)CC3)c(=O)n2C)cn1` [Example 91, 4-{5-(4-aminopiperidyl)-2-[6-(dimethylamino)(3-pyridyl)]-1-methyl-6-oxo(3-hydropyridyl)}-2-fluorobenzenecarbonitrile], the half-inhibitory concentration (IC50) in the experiment with THP-1 (AML) cells was less than 100 nM; against full-length human LSD1, less than 100 nM; with Kasumi-1, not above 100 nM.
In the case of `Cc1ccc(-c2c(-c3ccc(C#N)cc3)nc(N3CCC(N)CC3)c(=O)n2CCCO)cc1` [Example 40, 4-[6-(4-amino-piperidin-1-yl)-4-(3-hydroxy-propyl)-5-oxo-3-p-tolyl-4,5-dihydro-pyrazin-2-yl]-benzonitrile], the IC50 was less than 100 nM in the experiment on THP-1 (AML) cells, less than 100 nM against full-length human LSD1 and not above 100 nM in the experiment with Kasumi-1.
For `COc1ccc(-c2c(-c3ccc(C#N)c(F)c3)nc(NC[C@H]3CCNC3)c(=O)n2C)cc1` [Example 55, 2-fluoro-4-{3-(4-methoxy-phenyl)-4-methyl-5-oxo-6-[((3S)-pyrrolidin-3-ylmethyl)-amino]-4,5-dihydro-pyrazin-2-yl}-benzonitrile], the IC50 was less than 100 nM in the experiment with THP-1 (AML) cells, less than 100 nM against full-length human LSD1 and not above 100 nM in the experiment on Kasumi-1.
For the compound `COc1ccc(-c2c(-c3ccc(C#N)cc3)cc(N3CCC(N)CC3)c(=O)n2C)cc1` [Example 77, 4-[5-(4-aminopiperidin-1-yl)-2-(4-methoxyphenyl)-1-methyl-6-oxopyridin-3-yl]benzonitrile], the results for the IC50 with THP-1 (AML) cells, against full-length human LSD1 and with Kasumi-1 were less than 100 nM, less than 100 nM and not above 100 nM, respectively.
As to `CCc1ccc(-c2c(-c3ccc(C#N)cc3)nc(NC[C@H]3CCNC3)c(=O)n2C)cc1` [Example 28, 4-[3-(4-ethylphenyl)-4-methyl-5-oxo-6-{[(3S)-pyrrolidin-3-ylmethyl]amino}-4,5-dihydropyrazin-2-yl]benzonitrile], the IC50 in the experiment on THP-1 (AML) cells was 100 to 1000 nM; at full-length human LSD1, less than 100 nM; in the experiment with Kasumi-1, not above 100 nM.
Take `Cn1c(-c2ccc(C3CC3)cc2)c(-c2ccc(C#N)cc2)nc(N2CCC(N)CC2)c1=O` [Example 33, 4-[6-(4-aminopiperidin-1-yl)-3-(4-cyclopropylphenyl)-4-methyl-5-oxo-4,5-dihydropyrazin-2-yl]benzonitrile]: the IC50 in the experiment with THP-1 (AML) cells is less than 100 nM; against full-length human LSD1, less than 100 nM; with Kasumi-1 it was not above 100 nM.
As to `COc1ccc(-c2c(-c3ccc(C#N)c(F)c3)cc(NC[C@H]3CCNC3)c(=O)n2C)cc1` [Example 70, (S)-2-fluoro-4-(2-(4-methoxyphenyl)-1-methyl-6-oxo-5-(pyrrolidin-3-ylmethylamino)-1,6-dihydropyridin-3-yl)benzonitrile], the IC50 is less than 100 nM in the experiment on THP-1 (AML) cells, less than 100 nM against full-length human LSD1 and not above 100 nM in the experiment with Kasumi-1.
`Cc1ccc(-c2c(-c3ccc(C#N)cc3)cc(N3CCC(N)CC3)c(=O)n2C)cc1` [Example 75, 4-[5-(4-aminopiperidin-1-yl)-1-methyl-2-(4-methylphenyl)-6-oxopyridin-3-yl]benzonitrile]: the IC50 is less than 100 nM in the experiment on THP-1 (AML) cells, less than 100 nM against full-length human LSD1 and not above 100 nM with Kasumi-1.
On to `Cc1ccc(-c2c(-c3ccc(C#N)c(F)c3)nc(N3CCC(N)CC3)c(=O)n2CCCO)cc1` [Example 46, 4-[6-(4-aminopiperidyl)-4-(3-hydroxypropyl)-3-(4-methylphenyl)-5-oxo(4-hydropyrazin-2-yl)]-2-fluorobenzenecarbonitrile], for which the IC50 was less than 100 nM with THP-1 (AML) cells, less than 100 nM on full-length human LSD1 and not above 100 nM in the experiment with Kasumi-1.

As usually defined, the IC50 is the concentration that gives 50% inhibition. Higher therefore signals lower potency.

The record behind these values is patent publication US11028066B2, “Inhibitors of lysine specific demethylase-1” (CELGENE QUANTICEL RESEARCH, INC., priority 2014, dated 2021).
